According to PubChem BioAssay AID2060899 (Molecular Pharmacology Branch, DTP, NCI, 2025):
pIC50: −log10 of the molar value. Each block holds one compound with its values, some of them ahead of it.

Tested on: 565726-208-R1-J5-PDC complex spheroids, growth inhibition
Test: Anticancer human tumor 565726-208-R1-J5-PDC patient-derived pancreatic adenocarcinoma cell line growth inhibition [RAS]
Conditions: for pIC50: curve of first compound; for viability, T/C: stronger effect = lower value
In short: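 Agents were tested in combination matrices in half-log decrements from a top concentration at or near clinical Cmax (10 microM if undetermined). Targets were multi-cell spheroids of tumour lines plus HUVEC and MSC stromal cells.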

[1] = second compound 0.0316 µM, first compound 0.00316 µM
[2] = second compound 0.0316 µM, first compound 0.01 µM
[3] = second compound 0.0316 µM, first compound 0.0316 µM
[4] = second compound 0.0316 µM, first compound 0.1 µM
[5] = second compound 0.1 µM, first compound 0.00316 µM
[6] = second compound 0.1 µM, first compound 0.01 µM
[7] = second compound 0.1 µM, first compound 0.0316 µM
[8] = second compound 0.1 µM, first compound 0.1 µM
[9] = second compound 0.316 µM, first compound 0.00316 µM
[10] = second compound 0.316 µM, first compound 0.01 µM
[11] = second compound 0.316 µM, first compound 0.0316 µM
[12] = second compound 0.316 µM, first compound 0.1 µM
[13] = second compound 1 µM, first compound 0.00316 µM
[14] = second compound 1 µM, first compound 0.01 µM
[15] = second compound 1 µM, first compound 0.0316 µM
[16] = second compound 1 µM, first compound 0.1 µM
[17] = second compound 3.16 µM, first compound 0.00316 µM
[18] = second compound 3.16 µM, first compound 0.01 µM
[19] = second compound 3.16 µM, first compound 0.0316 µM
[20] = second compound 3.16 µM, first compound 0.1 µM
[21] = second compound 10 µM, first compound 0.00316 µM
[22] = second compound 10 µM, first compound 0.01 µM
[23] = second compound 10 µM, first compound 0.0316 µM
[24] = second compound 10 µM, first compound 0.1 µM
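Also: spheroids exposed to compounds for seven days before readout.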
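For viability, T/C in this document: 100% = DMSO vehicle control viability.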

pIC50 (second compound 0.000949 µM): < 5.00 | pIC50 (second compound 0.003 µM): < 5.00 | pIC50 (second compound 0.00949 µM): < 5.00 | pIC50 (second compound 0.03 µM): < 5.00 | pIC50 (second compound 0.0949 µM): < 5.00 | pIC50 (second compound 0.3 µM): 5.12
SMILES: CC(C)NCC(C(=O)N1CCN(c2ncnc3c2C(C)CC3O)CC1)c1ccc(Cl)cc1 (stereo unspecified) + CCn1c(-c2cccnc2C(C)OC)c2c3cc(ccc31)N1CCOC(CC(NC(=O)C(C(C)C)N(C)C(=O)C3(F)CCN(C(=O)C#CC(C)(C)N(C)C)CC3)C(=O)N3CCCC(N3)C(=O)OCC(C)(C)C2)C1
viability, T/C (second compound 0.000949 µM, first compound 0.0316 µM): 106% | viability, T/C (second compound 0.000949 µM, first compound 0.1 µM): 94.1% | viability, T/C (second compound 0.000949 µM, first compound 0.316 µM): 97.6% | viability, T/C (second compound 0.000949 µM, first compound 1 µM): 85.1% | viability, T/C (second compound 0.000949 µM, first compound 3.16 µM): 74% | viability, T/C (second compound 0.000949 µM, first compound 10 µM): 56.6% | viability, T/C (second compound 0.003 µM, first compound 0.0316 µM): 105% | viability, T/C (second compound 0.003 µM, first compound 0.1 µM): 99.2% | viability, T/C (second compound 0.003 µM, first compound 0.316 µM): 105% | viability, T/C (second compound 0.003 µM, first compound 1 µM): 94.7% | viability, T/C (second compound 0.003 µM, first compound 3.16 µM): 84.2% | viability, T/C (second compound 0.003 µM, first compound 10 µM): 59.4% | viability, T/C (second compound 0.00949 µM, first compound 0.0316 µM): 96% | viability, T/C (second compound 0.00949 µM, first compound 0.1 µM): 104% | viability, T/C (second compound 0.00949 µM, first compound 0.316 µM): 94.3% | viability, T/C (second compound 0.00949 µM, first compound 1 µM): 99.8% | viability, T/C (second compound 0.00949 µM, first compound 3.16 µM): 88.1% | viability, T/C (second compound 0.00949 µM, first compound 10 µM): 57.1% | viability, T/C (second compound 0.03 µM, first compound 0.0316 µM): 101% | viability, T/C (second compound 0.03 µM, first compound 0.1 µM): 95.5% | viability, T/C (second compound 0.03 µM, first compound 0.316 µM): 106% | viability, T/C (second compound 0.03 µM, first compound 1 µM): 89.4% | viability, T/C (second compound 0.03 µM, first compound 3.16 µM): 84.4% | viability, T/C (second compound 0.03 µM, first compound 10 µM): 56.5% | viability, T/C (second compound 0.0949 µM, first compound 0.0316 µM): 93.5% | viability, T/C (second compound 0.0949 µM, first compound 0.1 µM): 98.8% | viability, T/C (second compound 0.0949 µM, first compound 0.316 µM): 96.9% | viability, T/C (second compound 0.0949 µM, first compound 1 µM): 86.5% | viability, T/C (second compound 0.0949 µM, first compound 3.16 µM): 85.5% | viability, T/C (second compound 0.0949 µM, first compound 10 µM): 57.7% | viability, T/C (second compound 0.3 µM, first compound 0.0316 µM): 95.2% | viability, T/C (second compound 0.3 µM, first compound 0.1 µM): 87% | viability, T/C (second compound 0.3 µM, first compound 0.316 µM): 85.8% | viability, T/C (second compound 0.3 µM, first compound 1 µM): 80.8% | viability, T/C (second compound 0.3 µM, first compound 3.16 µM): 70.7% | viability, T/C (second compound 0.3 µM, first compound 10 µM): 43.2%

IC50 (curve of compound): 1.57 µM [middle of 4 runs]
SMILES: CCC(CC)c1cc(NC2CCC(N)C2)n2nccc2n1 (stereo unspecified)
viability, T/C (compound 0.316 µM): 105% [middle of 4 runs] | viability, T/C (compound 1 µM): 81.9% [middle of 4 runs] | viability, T/C (compound 3.16 µM): 1.5% [middle of 4 runs] | viability, T/C (compound 10 µM): 1.88% [middle of 4 runs]

pIC50 (second compound 0.0316 µM): < 7.00 | pIC50 (second compound 0.1 µM): < 7.00 | pIC50 (second compound 0.316 µM): < 7.00 | pIC50 (second compound 1 µM): 7.84 | pIC50 (second compound 3.16 µM): 8.30 | pIC50 (second compound 10 µM): 8.33
SMILES: CC(C)n1nc(-c2ccc3oc(N)nc3c2)c2c(N)ncnc21 + C#Cc1c(F)ccc2cc(O)cc(-c3ncc4c(N5CC6CCC(C5)N6)nc(OCC56CCCN5CC(F)C6)nc4c3F)c12
viability, T/C (second compound 0.0316 µM, first compound 0.000316 µM): 108% | viability, T/C (second compound 0.0316 µM, first compound 0.001 µM): 156% | viability, T/C [1]: 87.2% | viability, T/C [2]: 68.4% | viability, T/C [3]: 63.7% | viability, T/C [4]: 49.2% | viability, T/C (second compound 0.1 µM, first compound 0.000316 µM): 123% | viability, T/C (second compound 0.1 µM, first compound 0.001 µM): 135% | viability, T/C [5]: 73.8% | viability, T/C [6]: 72.5% | viability, T/C [7]: 59.7% | viability, T/C [8]: 51% | viability, T/C (second compound 0.316 µM, first compound 0.000316 µM): 123% | viability, T/C (second compound 0.316 µM, first compound 0.001 µM): 149% | viability, T/C [9]: 83.5% | viability, T/C [10]: 59.8% | viability, T/C [11]: 50.6% | viability, T/C [12]: 42.8% | viability, T/C (second compound 1 µM, first compound 0.000316 µM): 126% | viability, T/C (second compound 1 µM, first compound 0.001 µM): 115% | viability, T/C [13]: 68.3% | viability, T/C [14]: 62.4% | viability, T/C [15]: 41.7% | viability, T/C [16]: 40% | viability, T/C (second compound 3.16 µM, first compound 0.000316 µM): 111% | viability, T/C (second compound 3.16 µM, first compound 0.001 µM): 107% | viability, T/C [17]: 56.5% | viability, T/C [18]: 47.7% | viability, T/C [19]: 32.9% | viability, T/C [20]: 30.6% | viability, T/C (second compound 10 µM, first compound 0.000316 µM): 96.9% | viability, T/C (second compound 10 µM, first compound 0.001 µM): 80.5% | viability, T/C [21]: 56.4% | viability, T/C [22]: 36% | viability, T/C [23]: 25.6% | viability, T/C [24]: 18.4%

pIC50 (second compound 0.0316 µM): < 6.00 | pIC50 (second compound 0.1 µM): < 6.00 | pIC50 (second compound 0.316 µM): < 6.00 | pIC50 (second compound 1 µM): < 6.00 | pIC50 (second compound 3.16 µM): < 6.00 | pIC50 (second compound 10 µM): < 6.00
SMILES: C=CC(=O)N1CCN(c2nc(OCC3CCCN3C)nc3c(F)c(-c4nc(N)cc(C)c4C(F)(F)F)c(Cl)cc23)C(C)C1 (stereo unspecified) + C#Cc1c(F)ccc2cc(O)cc(-c3ncc4c(N5CC6CCC(C5)N6)nc(OCC56CCCN5CC(F)C6)nc4c3F)c12
viability, T/C [1]: 95.7% | viability, T/C [2]: 138% | viability, T/C [3]: 98.9% | viability, T/C [4]: 103% | viability, T/C (second compound 0.0316 µM, first compound 0.316 µM): 87% | viability, T/C (second compound 0.0316 µM, first compound 1 µM): 104% | viability, T/C [5]: 101% | viability, T/C [6]: 124% | viability, T/C [7]: 90.8% | viability, T/C [8]: 94.2% | viability, T/C (second compound 0.1 µM, first compound 0.316 µM): 110% | viability, T/C (second compound 0.1 µM, first compound 1 µM): 106% | viability, T/C [9]: 94.2% | viability, T/C [10]: 132% | viability, T/C [11]: 84.7% | viability, T/C [12]: 107% | viability, T/C (second compound 0.316 µM, first compound 0.316 µM): 87.7% | viability, T/C (second compound 0.316 µM, first compound 1 µM): 113% | viability, T/C [13]: 88.8% | viability, T/C [14]: 113% | viability, T/C [15]: 81.3% | viability, T/C [16]: 77.1% | viability, T/C (second compound 1 µM, first compound 0.316 µM): 82.8% | viability, T/C (second compound 1 µM, first compound 1 µM): 84.2% | viability, T/C [17]: 65.5% | viability, T/C [18]: 88.7% | viability, T/C [19]: 70% | viability, T/C [20]: 65.6% | viability, T/C (second compound 3.16 µM, first compound 0.316 µM): 83% | viability, T/C (second compound 3.16 µM, first compound 1 µM): 93.5% | viability, T/C [21]: 52.3% | viability, T/C [22]: 73.5% | viability, T/C [23]: 78.3% | viability, T/C [24]: 72.4% | viability, T/C (second compound 10 µM, first compound 0.316 µM): 69.5% | viability, T/C (second compound 10 µM, first compound 1 µM): 71%
